Laboratory results as given in US8314255B2, “Use of phthalimide and/or sulphonamide derivatives in the treatment of diseases which require reducing the TNF- α levels and an exogenous source of nitric oxide, phthalimide derivatives, sulphonamide derivatives, and a method for obtaining a sulphonamide derivative” (priority 2007, dated 2012).

Tests used:
K562 cells = test: Cell viability in K562 culture (trypan blue); format: cell-based, human; conditions: at 0 h; pattern maintained during the assay
Procedure: The human leukemia cell line K562 ATCC (American Type Culture Collection), Philadelphia, Pa., USA was used. The cells were cultured in DMEM median (Dulbecco's Modified Eagle Medium, Invitrogen, USA) containing 10% of fetal bovine serum and glutamine. The cells were maintained at 37° C. under a 5% CO2 atmosphere. For the experiments, the cells were incubated at a density of 1×10^5 cells/mL. In order to carry out the culture with hemin (30 uM), it was added 72 hours before the beginning of the experiment with the desired compound.
The 0-hour time consisted in removing non-treated K562 cells. From this point, the respective compounds were added at the desired concentrations (5, 30, 60 and 100 uM), the cells were then maintained for […] under culture, without a new addition of any compound or substitution of the culture medium. Cell collections were performed at the following times: 0, 24, 48, 72 and 96 hours. The morphology of the cells was analyzed at these points through cytospin slides stained with Leishman and the cell viability was performed by staining with trypan blue in a Neuberger's chamber.

[1] = test system: Salmonella typhimurium TA102; test: AMES test, mutagenic evaluation in Salmonella typhimurium TA102 strain with/without metabolic activation (S9); format: cell-based
Procedure: (§1) The procedure was firstly developed by (MARON, D. M. and AMES, B. N. Mut. Res. v. 113, pp. 173-215, 1983)
(§2) For this assay, Salmonella typhimurium TA100 and TA102 strains from the mutagenicity laboratory of the “Faculdade de Ciências Farmacêuticas—UNESP Araraquara” were used. Such strains have the following characteristics: (AMES, 1983)
(§3) The positive controls are mutagenic compounds specific for each strain and test condition, with 25 μL/plate of sodium azide (1.25 μg/plate) and 100 μL of mitomycin (0.5 μg/plate) being the controls for TA100 and TA102, respectively, in the absence of metabolic activation. For assays with metabolic activation, the positive control for TA100 is 50 μL 2-antramine (1.25 μg/plate) and for TA102 it is 50 μL 2-aminofluorene (1.25 μg/plate).
(§4) The preincubation method was used.
(§5) In laminar flow, Salmonella typhimurium (TA100 and TA 102) strains were inoculated individually with a platinum loop, in the respective nutrient broths and maintained at 37° C., under constant stirring (160 rpm) during 14 hours, in order to achieve a density of 1 to 2×10^9 bacteria/mL.
(§6) Different concentrations of the compounds were added into 100 μL of 0.2M phosphate buffer pH 7.4 (or 500 μL of the mixture S9 in metabolic activation assays) and incubated for 20-30 minutes at 37° C. Solutions containing the compounds had DMSO as the solvent. Thereafter, 2 mL of top agar supplemented with traces of histidine and biotin was added, homogenized and plated in glycosylated minimum medium. After solidification of the top agar, the plates were incubated for 48 hours at a 37° C. Then, the counting of the number of revertant colonies per plate was performed. All tested concentrations, positive and negative controls were run in triplicate.
(§7) After 48 hours, the revertant colonies were counted manually, and the protoCOL Colony Counter Version 3.15.630 (1998-2001) SYNBIOSIS LTD system was used for the positive control.
(§8) The final data obtained from the assay was analyzed using the statistical software Salanal (Salmonella Assay Analysis) version 1.0 from the Research Triangle Institute, RTP, North Carolina, USA. Such software allows the dose-response effect to be evaluated by means of analysis of variance (ANOVA-test F) computations between the measurement of the number of revertants at the different tested concentrations (doses) and the negative control, followed by a linear regression. The software model chosen for analyzing the data was Bernstein's (BERNSTEIN, L. et al. Mutat. Res. v. 97, p. 267-281, 1982). The slope of the straight line from the linear portion of the dose-response curve is also provided by this software and corresponds to the number of revertants induced per measurement unit of the analyzed sample.
(§9) From the results, the mutagenicity ratio (MR) was computed for each analyzed dose from each compound. MR is given by the following equation:
(§10) MR=average number of revertants per test plate (spontaneous+induced revertants) […] average number of revertants per plate of the negative control (spontaneous revertants)
(§11) The spontaneous growing means that the number of revertants which developed on the plate, regardless of being induced or not, wherein values higher or equal to 2 are considered as a positive response (VALENT, G. V. et al. Env. Toxicol. Water Quality. v. 8, p. 371-381, 1993).
(§12) The mutagenicity test with metabolic activation system was performed with a microsomal fraction S9 (S9 mix) prepared from a liver homogenizate from Sprague Dawley rats, previously treated with Aroclor 1254, acquired in the freeze-dried form.
(§13) The procedure for this assay is the same, however, instead of the buffer, 500 μL of the S9 mixture should be added.
(§14) The S9 mixture has a viability of 4 hours from preparation when put on ice. The plates are then incubated for 48 hours at 37° C. After the required time has elapsed, the counting of the revertant colonies was carried out. All tested concentrations, positive and negative controls were run in triplicate.

[2] = test system: Salmonella typhimurium TA100; test: AMES test, mutagenic evaluation in Salmonella typhimurium TA100 strain with/without metabolic activation (S9); format: cell-based
Procedure: as §1, §2, §3, §4, §5, §6, §7, §8, §9, §10, §11, §12, §13, §14

Nc1ccc(S(=O)(=O)NO)cc1 [Compound IIA, 4-amino-N-hydroxybenzenesulphonamide]
cell viability (K562 cells): 97%
mutagenicity ratio (MR) ([1]; TA 102, +S9, 0.98 μmol/plate): 1.03
number of revertants per plate ([1]; TA 102, +S9, 0.98 μmol/plate): 385 ± 33.1 revertants/plate
mutagenicity ratio (MR) ([1]; TA 102, +S9, 1.96 μmol/plate): 0.87
number of revertants per plate ([1]; TA 102, +S9, 1.96 μmol/plate): 323 ± 5.54 revertants/plate
mutagenicity ratio (MR) ([1]; TA 102, +S9, 3.92 μmol/plate): 1.13
number of revertants per plate ([1]; TA 102, +S9, 3.92 μmol/plate): 423.7 ± 22 revertants/plate
mutagenicity ratio (MR) ([1]; TA 102, +S9, 7.85 μmol/plate): 1.03
number of revertants per plate ([1]; TA 102, +S9, 7.85 μmol/plate): 387 ± 14.4 revertants/plate
mutagenicity ratio (MR) ([1]; TA 102, +S9, 15.7 μmol/plate): 0.8
number of revertants per plate ([1]; TA 102, +S9, 15.7 μmol/plate): 300 ± 4.9 revertants/plate
mutagenicity ratio (MR) ([1]; TA 102, −S9, 0.98 μmol/plate): 1.12
number of revertants per plate ([1]; TA 102, −S9, 0.98 μmol/plate): 222 ± 12 revertants/plate
mutagenicity ratio (MR) ([1]; TA 102, −S9, 1.96 μmol/plate): 1.22
number of revertants per plate ([1]; TA 102, −S9, 1.96 μmol/plate): 241 ± 13 revertants/plate
mutagenicity ratio (MR) ([1]; TA 102, −S9, 3.92 μmol/plate): 1.27
number of revertants per plate ([1]; TA 102, −S9, 3.92 μmol/plate): 251 ± 19.2 revertants/plate
mutagenicity ratio (MR) ([1]; TA 102, −S9, 7.85 μmol/plate): 1.17
number of revertants per plate ([1]; TA 102, −S9, 7.85 μmol/plate): 232 ± 13.1 revertants/plate
mutagenicity ratio (MR) ([1]; TA 102, −S9, 15.7 μmol/plate): 1.06
number of revertants per plate ([1]; TA 102, −S9, 15.7 μmol/plate): 210 ± 23 revertants/plate
mutagenicity ratio (MR) ([2]; TA 100, +S9, 0.98 μmol/plate): 1.24
number of revertants per plate ([2]; TA 100, +S9, 0.98 μmol/plate): 160 ± 12.4 revertants/plate
mutagenicity ratio (MR) ([2]; TA 100, +S9, 1.96 μmol/plate): 1.36
number of revertants per plate ([2]; TA 100, +S9, 1.96 μmol/plate): 175.7 ± 2 revertants/plate
mutagenicity ratio (MR) ([2]; TA 100, +S9, 3.92 μmol/plate): 1.43
number of revertants per plate ([2]; TA 100, +S9, 3.92 μmol/plate): 185.3 ± 15 revertants/plate
mutagenicity ratio (MR) ([2]; TA 100, +S9, 7.85 μmol/plate): 1.59
number of revertants per plate ([2]; TA 100, +S9, 7.85 μmol/plate): 206 ± 13.6 revertants/plate
mutagenicity ratio (MR) ([2]; TA 100, +S9, 15.7 μmol/plate): 2.74
number of revertants per plate ([2]; TA 100, +S9, 15.7 μmol/plate): 354 ± 6.5 revertants/plate
mutagenicity ratio (MR) ([2]; TA 100, −S9, 0.98 μmol/plate): 0.99
number of revertants per plate ([2]; TA 100, −S9, 0.98 μmol/plate): 146.3 ± 5.1 revertants/plate
mutagenicity ratio (MR) ([2]; TA 100, −S9, 1.96 μmol/plate): 1.23
number of revertants per plate ([2]; TA 100, −S9, 1.96 μmol/plate): 180.5 ± 7.8 revertants/plate
mutagenicity ratio (MR) ([2]; TA 100, −S9, 3.92 μmol/plate): 1.22
number of revertants per plate ([2]; TA 100, −S9, 3.92 μmol/plate): 179 ± 11.3 revertants/plate
mutagenicity ratio (MR) ([2]; TA 100, −S9, 7.85 μmol/plate): 1.17
number of revertants per plate ([2]; TA 100, −S9, 7.85 μmol/plate): 172.7 ± 12.5 revertants/plate
mutagenicity ratio (MR) ([2]; TA 100, −S9, 15.7 μmol/plate): 1.19
number of revertants per plate ([2]; TA 100, −S9, 15.7 μmol/plate): 175 ± 2.8 revertants/plate
concentration above which the number of revertants is reduced by cell toxicity ([2]; with metabolic activation): Above 15.7 μmol/plate

O=C1c2ccccc2C(=O)N1CO[N+](=O)[O-] [Compound IA, (1,3-dioxo-1,3-dihydro-2H-isoindol-2-yl)methyl nitrate]
concentration above which toxicity is observed (reduction on the number of revertants per plate) ([1]; TA102 (+S9)): higher than 56 nmol
mutagenicity ratio (MR) ([1]; TA 102, +S9, 7.25 nmol/plate): 1.4
number of revertants per plate ([1]; TA 102, +S9, 7.25 nmol/plate): 298 ± 11.3 revertants/plate
mutagenicity ratio (MR) ([1]; TA 102, +S9, 14.5 nmol/plate): 1.5
number of revertants per plate ([1]; TA 102, +S9, 14.5 nmol/plate): 320.8 ± 17 revertants/plate
mutagenicity ratio (MR) ([1]; TA 102, +S9, 29 nmol/plate): 1.8
number of revertants per plate ([1]; TA 102, +S9, 29 nmol/plate): 385 ± 21.8 revertants/plate
mutagenicity ratio (MR) ([1]; TA 102, +S9, 56 nmol/plate): 2.34
number of revertants per plate ([1]; TA 102, +S9, 56 nmol/plate): 499 ± 8.9 revertants/plate
mutagenicity ratio (MR) ([1]; TA 102, +S9, 112 nmol/plate): 1.64
number of revertants per plate ([1]; TA 102, +S9, 112 nmol/plate): 351.2 ± 12 revertants/plate
mutagenicity ratio (MR) ([1]; TA 102, −S9, 7.25 nmol/plate): 1.33
number of revertants per plate ([1]; TA 102, −S9, 7.25 nmol/plate): 263.7 ± 15 revertants/plate
mutagenicity ratio (MR) ([1]; TA 102, −S9, 14.5 nmol/plate): 1.26
number of revertants per plate ([1]; TA 102, −S9, 14.5 nmol/plate): 249.7 ± 12 revertants/plate
mutagenicity ratio (MR) ([1]; TA 102, −S9, 29 nmol/plate): 1.32
number of revertants per plate ([1]; TA 102, −S9, 29 nmol/plate): 261.3 ± 20 revertants/plate
mutagenicity ratio (MR) ([1]; TA 102, −S9, 56 nmol/plate): 0.77
number of revertants per plate ([1]; TA 102, −S9, 56 nmol/plate): 153 ± 21 revertants/plate
mutagenicity ratio (MR) ([1]; TA 102, −S9, 112 nmol/plate): 0.71
number of revertants per plate ([1]; TA 102, −S9, 112 nmol/plate): 141 ± 18 revertants/plate
mutagenicity ratio (MR) ([2]; TA 100, +S9, 7.25 nmol/plate): 1.19
number of revertants per plate ([2]; TA 100, +S9, 7.25 nmol/plate): 154 ± 14.2 revertants/plate
mutagenicity ratio (MR) ([2]; TA 100, +S9, 14.5 nmol/plate): 1.19
number of revertants per plate ([2]; TA 100, +S9, 14.5 nmol/plate): 155 ± 5.9 revertants/plate
mutagenicity ratio (MR) ([2]; TA 100, +S9, 29 nmol/plate): 1.08
number of revertants per plate ([2]; TA 100, +S9, 29 nmol/plate): 140.3 ± 2 revertants/plate
mutagenicity ratio (MR) ([2]; TA 100, +S9, 56 nmol/plate): 0.97
number of revertants per plate ([2]; TA 100, +S9, 56 nmol/plate): 126.3 ± 8.1 revertants/plate
mutagenicity ratio (MR) ([2]; TA 100, +S9, 112 nmol/plate): 1.03
number of revertants per plate ([2]; TA 100, +S9, 112 nmol/plate): 133.3 ± 11 revertants/plate
mutagenicity ratio (MR) ([2]; TA 100, −S9, 7.25 nmol/plate): 1.03
number of revertants per plate ([2]; TA 100, −S9, 7.25 nmol/plate): 140.5 ± 17 revertants/plate
mutagenicity ratio (MR) ([2]; TA 100, −S9, 14.5 nmol/plate): 1.18
number of revertants per plate ([2]; TA 100, −S9, 14.5 nmol/plate): 161.7 ± 11 revertants/plate
mutagenicity ratio (MR) ([2]; TA 100, −S9, 29 nmol/plate): 0.9
number of revertants per plate ([2]; TA 100, −S9, 29 nmol/plate): 122.7 ± 3.06 revertants/plate
mutagenicity ratio (MR) ([2]; TA 100, −S9, 56 nmol/plate): 1.71
number of revertants per plate ([2]; TA 100, −S9, 56 nmol/plate): 234 ± 39.5 revertants/plate
mutagenicity ratio (MR) ([2]; TA 100, −S9, 112 nmol/plate): 2.45
number of revertants per plate ([2]; TA 100, −S9, 112 nmol/plate): 335 ± 15.7 revertants/plate
